pIC50: −log10 of the molar value.
Key:
Estrogen receptor beta = Estrogen receptor beta (Homo sapiens, UniProt Q92731); test: Binding affinity towards human estrogen receptor beta (ERbeta)
Estrogen receptor [1] = target: T1, Estrogen receptor (Homo sapiens, UniProt P03372); test: Binding affinity towards human estrogen receptor alpha
T1 sequence (P03372 whole entry): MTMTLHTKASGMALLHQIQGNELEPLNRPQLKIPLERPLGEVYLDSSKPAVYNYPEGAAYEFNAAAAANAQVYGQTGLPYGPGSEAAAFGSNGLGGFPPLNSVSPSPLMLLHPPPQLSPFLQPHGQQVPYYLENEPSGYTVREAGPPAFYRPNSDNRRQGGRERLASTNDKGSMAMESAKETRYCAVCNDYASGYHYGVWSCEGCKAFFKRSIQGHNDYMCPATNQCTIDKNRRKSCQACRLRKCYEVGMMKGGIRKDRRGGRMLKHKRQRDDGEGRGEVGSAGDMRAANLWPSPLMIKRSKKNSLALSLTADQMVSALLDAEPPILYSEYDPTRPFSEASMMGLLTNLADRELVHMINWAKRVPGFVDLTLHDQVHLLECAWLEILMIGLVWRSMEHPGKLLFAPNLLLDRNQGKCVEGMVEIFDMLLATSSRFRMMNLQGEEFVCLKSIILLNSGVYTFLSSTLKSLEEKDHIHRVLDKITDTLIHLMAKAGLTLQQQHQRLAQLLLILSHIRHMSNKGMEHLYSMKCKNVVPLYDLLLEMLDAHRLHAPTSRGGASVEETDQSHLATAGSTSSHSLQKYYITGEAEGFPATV

Estrogen receptor [2] = target: T2, Estrogen receptor (Homo sapiens, UniProt Q92731+P03372); test: […] inhibition of human ERalpha/ERbeta co-expressed in HEK 293 cells; 137/1375; format: functional; conditions: hek293
Estrogen receptor [3] = target: T2, Estrogen receptor; test: In vitro inhibition of human ERalpha/ERbeta expressed in HEK 293 cells; 76/322; conditions: hek293
Estrogen receptor [4] = target: T2, Estrogen receptor; test: […] inhibition of human ERalpha/ERbeta co-expressed in HEK 293 cells; 127/3316; format: functional; conditions: hek293
Estrogen receptor [5] = target: T2, Estrogen receptor; test: […] inhibition of human ERalpha/ERbeta co-expressed in HEK 293 cells; 21/840; format: functional; conditions: hek293
Estrogen receptor [6] = target: T2, Estrogen receptor; test: In vivo inhibition of human ERalpha/ERbeta co-expressed in HEK 293 cells; format: functional; conditions: hek293

Estrogen receptor beta, sequence (Q92731 whole entry): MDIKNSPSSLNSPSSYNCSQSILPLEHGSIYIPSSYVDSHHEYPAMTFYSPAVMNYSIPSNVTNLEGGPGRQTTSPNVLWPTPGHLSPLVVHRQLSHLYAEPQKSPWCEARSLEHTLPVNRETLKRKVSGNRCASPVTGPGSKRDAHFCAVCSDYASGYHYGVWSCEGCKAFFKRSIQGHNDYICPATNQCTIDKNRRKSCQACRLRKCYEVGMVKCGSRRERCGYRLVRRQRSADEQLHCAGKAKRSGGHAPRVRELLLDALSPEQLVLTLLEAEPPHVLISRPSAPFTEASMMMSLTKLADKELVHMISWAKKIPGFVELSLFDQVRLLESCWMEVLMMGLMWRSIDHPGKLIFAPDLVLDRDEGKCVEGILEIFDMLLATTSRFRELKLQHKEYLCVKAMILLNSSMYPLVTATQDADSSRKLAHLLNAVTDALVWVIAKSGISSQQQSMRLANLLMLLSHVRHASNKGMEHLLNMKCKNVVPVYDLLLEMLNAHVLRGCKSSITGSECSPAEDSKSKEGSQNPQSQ

Structure (SMILES) | pIC50 (Estrogen receptor beta) | pIC50 (Estrogen receptor [1]) | further results
Oc1ccc2c(c1)S[C@H](C1CCCCC1)[C@H](c1ccc(OCCN3CCCCC3)cc1)O2 | 7.80 | 8.59 | –
Oc1ccc2c(c1)S[C@H](c1ccncc1)[C@H](c1ccc(OCCN3CCCCC3)cc1)O2 | 5.09 | 6.31 | –
Oc1ccc2c(c1)S[C@H](C1CCCC1)[C@H](c1ccc(OCCN3CCCCC3)cc1)O2 | 7.51 | 8.60 | –
Oc1ccc2c(c1)S[C@H](c1ccco1)[C@H](c1ccc(OCCN3CCCCC3)cc1)O2 | 6.44 | 7.46 | –
CC(C)(C)[C@H]1Sc2cc(O)ccc2O[C@H]1c1ccc(OCCN2CCCCC2)cc1 | 7.37 | 7.96 | IC50 (Estrogen receptor [2]): 137 nM
CC(C)C[C@H]1Sc2cc(O)ccc2O[C@H]1c1ccc(OCCN2CCCCC2)cc1 | 7.42 | 8.52 | IC50 (Estrogen receptor [3]): 76 nM
Oc1ccc2c(c1)S[C@H](c1cccs1)[C@H](c1ccc(OCCN3CCCCC3)cc1)O2 | 6.79 | 8.06 | –
Oc1ccc2c(c1)S[C@H](CC1CCCCC1)[C@H](c1ccc(OCCN3CCCCC3)cc1)O2 | 7.40 | 8.41 | –
Oc1ccc2c(c1)S[C@H](c1cccnc1)[C@H](c1ccc(OCCN3CCCCC3)cc1)O2 | 5.08 | 6.27 | –
CC(C)[C@H]1Sc2cc(O)ccc2O[C@H]1c1ccc(OCCN2CCCCC2)cc1 | 6.98 | 8.15 | IC50 (Estrogen receptor [4]): 127 nM
Oc1ccc2c(c1)S[C@H](C1CCCCCC1)[C@H](c1ccc(OCCN3CCCCC3)cc1)O2 | 7.55 | 8.12 | IC50 (Estrogen receptor [5]): 21 nM
Oc1ccc2c(c1)S[C@H](Cc1ccccc1)[C@H](c1ccc(OCCN3CCCCC3)cc1)O2 | 7.22 | 8.13 | IC50 (Estrogen receptor [6]): 61 nM
Oc1ccc2c(c1)S[C@H](CC1CCCC1)[C@H](c1ccc(OCCN3CCCCC3)cc1)O2 | 7.47 | 8.52 | –
Oc1ccc(C[C@H]2Sc3cc(O)ccc3O[C@H]2c2ccc(OCCN3CCCCC3)cc2)cc1 | 6.51 | 8.57 | IC50 (Estrogen receptor [6]): 14 nM
